For 9 compounds, TGI and GI50 results are on record in PubChem BioAssay (NCI).

Some test systems named below: SN12C renal; KM12 colon; RXF 393 renal; MALME-3M melanoma; UACC-62 melanoma; NCI-H226 lung; SF-539 CNS; HL-60(TB) leukemia; A498 renal; UACC-257 melanoma.
Experiment in all cases: growth of human tumour cells (NCI), 48 h

Each structure is given as a SMILES string.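 Exposure lasted 48 hours, with cells grown in 96-well plates and compounds tested at five concentrations. The concentration for 50% growth inhibition is given as GI50. At the TGI there is no net growth.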

On to `C[C@@H]1C(=O)CC2C(C)(C)CCC[C@]2(C)[C@@]12CC[C@]1(C=COC1)O2` (stereo not given in full), for which the TGI was 38 µM with SN12C renal; above 100 µM with KM12 colon; 56.3 µM in the assay with RXF 393 renal; 79.5 µM with MALME-3M melanoma; above 100 µM in the assay with UACC-62 melanoma; above 100 µM in the assay with NCI-H226 lung. Further, the TGI was above 100 µM in the assay on SF-539 CNS and 42.3 µM in the assay with HL-60(TB) leukemia.
Consider `O=c1nc2n(-c3cccc(Cl)c3)c3ccc([N+](=O)[O-])cc3cc-2c(=O)[nH]1`, for which the GI50 was 4.55 µM in the assay on SN12C renal; 3.13 µM in the assay on KM12 colon; 16.7 µM with A498 renal; 10.1 µM in the assay on RXF 393 renal; 9.78 µM in the assay with UACC-257 melanoma; 3.54 µM with UACC-62 melanoma. For the same compound, the values for the GI50 in the assay on NCI-H226 lung, in the assay with SF-539 CNS and with HL-60(TB) leukemia were 5.51 µM, 4.4 µM and 1.29 µM, respectively. The TGI was 10.6 µM in the assay with SN12C renal; 7.57 µM in the assay with KM12 colon; above 25 µM in the assay on A498 renal; above 25 µM in the assay on RXF 393 renal; above 25 µM in the assay on UACC-257 melanoma; 8.38 µM in the assay with UACC-62 melanoma. Moreover, the TGI with NCI-H226 lung is 13.6 µM; in the assay on SF-539 CNS, 11.8 µM; in the assay on HL-60(TB) leukemia, above 25 µM.
Regarding `C=CC1(C)CCC2C(=CCC3C2(C)CC(O)C(O)C3(C)COC2OC(CO)C(O)C(O)C2O)C1` (stereo not given), the TGI in the assay with SN12C renal, with KM12 colon, in the assay on A498 renal, in the assay with MALME-3M melanoma, in the assay with UACC-257 melanoma and in the assay with UACC-62 melanoma was above 100 µM throughout. The TGI with NCI-H226 lung, in the assay with SF-539 CNS and in the assay on HL-60(TB) leukemia was above 100 µM each time.
In the case of `CCOC(=O)c1noc2c1CCc1c-2cn(Cc2ccc(OC)cc2)c1-c1cc(OC)c(OC)c(OC)c1`, the GI50 in the assay with SN12C renal is 3.92 µM; in the assay on KM12 colon, 0.91 µM; in the assay with A498 renal it was 2.77 µM; with RXF 393 renal, 2.17 µM; in the assay on UACC-257 melanoma, 85.8 µM; in the assay on UACC-62 melanoma, 2.74 µM. The GI50 in the assay with NCI-H226 lung was above 100 µM; with SF-539 CNS, 1.84 µM; in the assay with HL-60(TB) leukemia it was 0.452 µM. The TGI was above 100 µM with SN12C renal; above 100 µM with KM12 colon; 42 µM with A498 renal; 45.6 µM in the assay on RXF 393 renal; above 100 µM in the assay on UACC-257 melanoma; above 100 µM in the assay with UACC-62 melanoma. Besides, the TGI is above 100 µM with NCI-H226 lung, 6.56 µM in the assay on SF-539 CNS and 4.89 µM in the assay with HL-60(TB) leukemia.
As to `O=c1[nH]c2ccccc2n1C1CCNCC1`, the GI50 was above 100 µM with SN12C renal; above 100 µM in the assay with KM12 colon; 24.4 µM with A498 renal; above 100 µM in the assay on RXF 393 renal; above 100 µM in the assay on UACC-257 melanoma; above 100 µM in the assay with UACC-62 melanoma. Besides, the GI50 with NCI-H226 lung, with SF-539 CNS and with HL-60(TB) leukemia was above 100 µM each time. In addition, the TGI in the assay on SN12C renal, with KM12 colon, in the assay with A498 renal, with RXF 393 renal, in the assay on UACC-257 melanoma and in the assay with UACC-62 melanoma was above 100 µM each time. Moreover, the TGI with NCI-H226 lung, in the assay on SF-539 CNS and in the assay with HL-60(TB) leukemia was above 100 µM in each case.
On to `NC(N)NCCCc1cn2c(n1)C1CCCN1C(=O)C2Cc1ccccc1` (stereo not given), for which the TGI in the assay on SN12C renal, with KM12 colon, in the assay on A498 renal, with RXF 393 renal, in the assay on MALME-3M melanoma and with UACC-257 melanoma was above 100 µM throughout. Moreover, the TGI in the assay with UACC-62 melanoma, in the assay with NCI-H226 lung and in the assay with SF-539 CNS was above 100 µM each time.
Consider `O=C(O)c1ccc(N(/C=C/C(=O)C(F)(F)F)Cc2ccc(Cl)cc2)cc1`, for which the GI50 was 32.3 µM with SN12C renal; 23.2 µM with KM12 colon; 22 µM with A498 renal; 46.3 µM in the assay with RXF 393 renal; 30.7 µM with UACC-257 melanoma; 24 µM in the assay on UACC-62 melanoma. Also, the results for the GI50 in the assay with SF-539 CNS and in the assay on HL-60(TB) leukemia were 19 µM and 40.2 µM, respectively. Also, the TGI with SN12C renal was above 100 µM; in the assay on KM12 colon it was 59.9 µM; in the assay with A498 renal, 62.9 µM; in the assay with RXF 393 renal, above 100 µM; with UACC-257 melanoma it was 86.8 µM; in the assay on UACC-62 melanoma it was 66.3 µM. Moreover, the results for the TGI with SF-539 CNS and in the assay on HL-60(TB) leukemia were 42.1 µM and above 100 µM, respectively.
Regarding `O=C(N/N=C/c1ccc(Cl)cc1)c1ccc(NC(=O)c2ccccn2)cc1`, the GI50 was 18.9 µM in the assay on SN12C renal; 31 µM with KM12 colon; 44.9 µM in the assay on A498 renal; 15.4 µM in the assay on RXF 393 renal; 33.1 µM in the assay on MALME-3M melanoma; above 100 µM with UACC-257 melanoma. Besides, the GI50 in the assay with UACC-62 melanoma was 24.5 µM; with NCI-H226 lung, 24.5 µM; in the assay with SF-539 CNS it was 15.8 µM. Also, the TGI in the assay with SN12C renal is 55.4 µM; in the assay with KM12 colon it was above 100 µM; in the assay with A498 renal it was above 100 µM; with RXF 393 renal it was 63.3 µM; in the assay with MALME-3M melanoma it was above 100 µM; in the assay with UACC-257 melanoma, above 100 µM. The results for the TGI in the assay on UACC-62 melanoma, with NCI-H226 lung and in the assay on SF-539 CNS were above 100 µM, above 100 µM and 40.3 µM, respectively.
As to `O=S(=O)(NCCCNc1cc(-c2cn(-c3ccccc3)nc2-c2cccc(O)c2)ccn1)c1ccc(C(F)(F)F)cc1`, the GI50 is 1.81 µM in the assay on SN12C renal; 1.89 µM in the assay with KM12 colon; 1.1 µM in the assay with A498 renal; 1.24 µM with RXF 393 renal; 1.53 µM in the assay on UACC-62 melanoma; 2.31 µM with NCI-H226 lung. Also, the GI50 with SF-539 CNS was 1.83 µM; in the assay with HL-60(TB) leukemia, 2.52 µM. Besides, the TGI was 3.67 µM in the assay with SN12C renal; 4.49 µM with KM12 colon; 2.64 µM with A498 renal; 2.84 µM with RXF 393 renal; 3.17 µM with UACC-62 melanoma; 6.25 µM in the assay on NCI-H226 lung. Besides, the TGI with SF-539 CNS turned out to be 3.77 µM; with HL-60(TB) leukemia it was 6.2 µM.
